Laboratory results published in PubChem BioAssay AID248 (DTP/NCI, 2004).
Toxic doses and inconclusive results are not listed. No stated cut-off is given here; in the data, active means T/C of 150% or more; inactive means T/C below 125%.

Tested on: L1210 leukemia ip in BDF1 mice, survival T/C
Assay: NCI In Vivo Anticancer Drug Screen. Data for tumor model L1210 Leukemia (intraperitoneal) in B6D2F1 (BDF1) mice
Conditions: endpoint: mean survival time, higher = longer survival
In short: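 Read-out is survival time, reported as the treated-group measurement over the vehicle-control measurement.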

[1] = dose: 100.0 mg/kg/injection, schedule: Q01DX009 (ip), vehicle: Klucel (hydroxypropylcellulose) (HPC)
[2] = dose: 200.0 mg/kg/injection, schedule: Q01DX009 (ip), vehicle: Klucel (hydroxypropylcellulose) (HPC)
[3] = dose: 400.0 mg/kg/injection, schedule: Q01DX009 (ip), vehicle: Klucel (hydroxypropylcellulose) (HPC)
[4] = dose: 100.0 mg/kg/injection, schedule: Q01DX001 (ip), vehicle: saline with Tween-80
[5] = dose: 200.0 mg/kg/injection, schedule: Q01DX001 (ip), vehicle: saline with Tween-80
[6] = dose: 400.0 mg/kg/injection, schedule: Q01DX001 (ip), vehicle: saline with Tween-80
[7] = dose: 100.0 mg/kg/injection, schedule: Q01DX001 (ip), vehicle: saline
[8] = dose: 200.0 mg/kg/injection, schedule: Q01DX001 (ip), vehicle: saline
[9] = dose: 100.0 mg/kg/injection, schedule: Q04DX003 (ip), vehicle: saline
[10] = dose: 200.0 mg/kg/injection, schedule: Q04DX003 (ip), vehicle: saline
[11] = dose: 400.0 mg/kg/injection, schedule: Q04DX003 (ip), vehicle: saline
[12] = dose: 100.0 mg/kg/injection, schedule: Q04DX003 (ip), vehicle: saline with Tween-80
[13] = dose: 200.0 mg/kg/injection, schedule: Q04DX003 (ip), vehicle: saline with Tween-80
[14] = dose: 100.0 mg/kg/injection, schedule: Q01DX001 (ip), vehicle: carboxymethylcellulose (CMC)
[15] = dose: 200.0 mg/kg/injection, schedule: Q01DX001 (ip), vehicle: carboxymethylcellulose (CMC)
[16] = dose: 400.0 mg/kg/injection, schedule: Q01DX001 (ip), vehicle: carboxymethylcellulose (CMC)
[17] = dose: 400.0 mg/kg/injection, schedule: Q01DX001 (ip), vehicle: saline
[18] = dose: 50.0 mg/kg/injection, schedule: Q01DX001 (ip), vehicle: carboxymethylcellulose (CMC)
[19] = dose: 100.0 mg/kg/injection, schedule: Q04DX002 (ip), vehicle: saline with Tween-80
[20] = dose: 200.0 mg/kg/injection, schedule: Q04DX002 (ip), vehicle: saline with Tween-80
[21] = dose: 50.0 mg/kg/injection, schedule: Q01DX001 (ip), vehicle: saline
[22] = dose: 50.0 mg/kg/injection, schedule: Q04DX002 (ip), vehicle: saline
[23] = dose: 100.0 mg/kg/injection, schedule: Q04DX002 (ip), vehicle: saline

Measured: T/C

CCOC(=O)c1c[nH]c2c(ccc3cc(OC)ccc32)c1=O
inactive: dose: 50.0 mg/kg/injection, schedule: Q01DX009 (ip), vehicle: Klucel (hydroxypropylcellulose) (HPC) 101 % of control | [1] 97 % of control | [2] 97 % of control

CNC(=O)Oc1ccc(C=Nc2cccc([N+](=O)[O-])c2)cc1
inactive: [1] 101 % of control | [2] 95 % of control | [3] 100 % of control

O=C1C(c2ccc(Br)cc2)=C(c2ccccc2)c2c(-c3ccccc3)cc(Br)c(-c3ccccc3)c21
inactive: [4] 90 % of control | [5] 90 % of control | [6] 87 % of control

O=C(Nc1ccc(C2=NCCN2)cc1)c1cc(Cl)c(C(=O)Nc2ccc(C3=NCCN3)cc2)cc1Cl
inactive: dose: 13.4 mg/kg/injection, schedule: Q01DX Z (ip), vehicle: carboxymethylcellulose (CMC) 104 % of control | dose: 20.0 mg/kg/injection, schedule: Q01DX Z (ip), vehicle: carboxymethylcellulose (CMC) 123 % of control | dose: 45.0 mg/kg/injection, schedule: Q01DX Z (ip), vehicle: carboxymethylcellulose (CMC) 88 % of control

COc1ccc(C=NC(C)(C)CO)c(OC)c1
inactive: dose: 75.0 mg/kg/injection, schedule: Q01DX001 (ip), vehicle: saline 96 % of control | dose: 150.0 mg/kg/injection, schedule: Q01DX001 (ip), vehicle: saline 101 % of control

NC(=O)CNC(=O)OCc1ccccc1
inactive: [1] 102 % of control | dose: 100.0 mg/kg/injection, schedule: Q04DX003 (ip), vehicle: Klucel (hydroxypropylcellulose) (HPC) 94 % of control | [2] 94 % of control | dose: 200.0 mg/kg/injection, schedule: Q04DX003 (ip), vehicle: Klucel (hydroxypropylcellulose) (HPC) 105 % of control | [3] 107 % of control | dose: 400.0 mg/kg/injection, schedule: Q04DX003 (ip), vehicle: Klucel (hydroxypropylcellulose) (HPC) 94 % of control

Brc1cccc[n+]1-c1cc(-[n+]2ccccc2Br)cc(-[n+]2ccccc2Br)c1
inactive: dose: 1.17 mg/kg/injection, schedule: Q01DX001 (ip), vehicle: other 95 % of control | dose: 2.34 mg/kg/injection, schedule: Q01DX001 (ip), vehicle: other 102 % of control | dose: 4.69 mg/kg/injection, schedule: Q01DX001 (ip), vehicle: other 101 % of control

Cc1c(-c2ccccc2Br)nc2ccccc2c1C(=O)O
inactive: [7] 96 % of control | [8] 89 % of control

Cc1ccc2nc(-c3ccc(F)cc3)cc(C(=O)O)c2c1
inactive: [9] 92 % of control | [10] 89 % of control | [11] 95 % of control

O=C1C(Br)(Br)CCCCC1(c1ccccc1)c1ccccc1
inactive: [12] 101 % of control | [13] 103 % of control | dose: 400.0 mg/kg/injection, schedule: Q04DX003 (ip), vehicle: saline with Tween-80 87 % of control

O=c1[nH]cnc2c1nc1n2CCC1
inactive: dose: 50.0 mg/kg/injection, schedule: Q01DX009 (ip), vehicle: saline with Tween-80 93 % of control | dose: 100.0 mg/kg/injection, schedule: Q01DX009 (ip), vehicle: saline with Tween-80 90 % of control | [12] 105 % of control | dose: 200.0 mg/kg/injection, schedule: Q01DX009 (ip), vehicle: saline with Tween-80 88 % of control | [13] 102 % of control

CC1(C)N=C(N)N=C(N)N1c1cccc(OCCOc2ccc(NC(=O)/C=C/C(=O)O)cc2)c1
inactive: [14] 101 % of control | [15] 97 % of control | [16] 94 % of control

COCCNCCOC
inactive: dose: 50.0 mg/kg/injection, schedule: Q04DX003 (ip), vehicle: saline 106 % of control | dose: 100.0 mg/kg/injection, schedule: Q01DX009 (ip), vehicle: saline 103 % of control | [9] 100 % of control | dose: 200.0 mg/kg/injection, schedule: Q01DX009 (ip), vehicle: saline 98 % of control | [10] 122 % of control | dose: 400.0 mg/kg/injection, schedule: Q01DX009 (ip), vehicle: saline 104 % of control | [11] 103 % of control

O=C(NNc1nc(-c2ccccc2)nc(-c2ccccc2)n1)c1ccccc1
inactive: [7] 95 % of control | [8] 96 % of control | [17] 89 % of control

CSc1ncnc2c1N=CNN2
inactive: [18] 94 % of control | [14] 95 % of control

COC(=N)c1ccc(O)cc1
inactive: [19] 94 % of control | [20] 98 % of control

COc1cc2c(cc1OC)C(=O)C(c1[nH]c3cc(OC)c(OC)cc3c1O)=N2
inactive: [21] 98 % of control | [7] 98 % of control | [8] 96 % of control | [17] 96 % of control

Cc1ccc(S(=O)(=O)c2ccc(C)cc2)cc1
inactive: [18] 96 % of control | [14] 111 % of control | [15] 100 % of control | [16] 105 % of control

Nc1nc(N)c(-c2ccc(Cl)cc2)c(/C=C/c2ccc([N+](=O)[O-])cc2)n1
inactive: [21] 104 % of control | [7] 93 % of control | [8] 93 % of control | [17] 96 % of control

CCOC(=O)Nc1cc(NCC(O)CN(C)c2ccc(Cl)cc2)c([N+](=O)[O-])c(N)n1 (stereo not drawn)
inactive: [4] 92 % of control | [5] 86 % of control | [6] 89 % of control

CCCOB(OCCC)OCCC
inactive: [21] 95 % of control | [7] 98 % of control | [8] 98 % of control | [17] 106 % of control

CN(C)C(=O)C(=O)c1c[nH]c2ccccc12
inactive: dose: 100.0 mg/kg/injection, schedule: Q04DX002 (ip), vehicle: Klucel (hydroxypropylcellulose) (HPC) 118 % of control | dose: 200.0 mg/kg/injection, schedule: Q04DX002 (ip), vehicle: Klucel (hydroxypropylcellulose) (HPC) 109 % of control | dose: 400.0 mg/kg/injection, schedule: Q04DX002 (ip), vehicle: Klucel (hydroxypropylcellulose) (HPC) 109 % of control

CS(=O)(=O)c1nc2ccc([N+](=O)[O-])cc2s1
inactive: dose: 25.0 mg/kg/injection, schedule: Q04DX002 (ip), vehicle: saline 107 % of control | [22] 104 % of control | [23] 100 % of control

Cc1noc(N)c1N
inactive: dose: 100.0 mg/kg/injection, schedule: Q01DX009 (ip), vehicle: water 105 % of control | dose: 100.0 mg/kg/injection, schedule: Q04DX003 (ip), vehicle: water 93 % of control | dose: 200.0 mg/kg/injection, schedule: Q01DX009 (ip), vehicle: water 115 % of control | dose: 200.0 mg/kg/injection, schedule: Q04DX003 (ip), vehicle: water 96 % of control | dose: 400.0 mg/kg/injection, schedule: Q01DX009 (ip), vehicle: water 121 % of control | dose: 400.0 mg/kg/injection, schedule: Q04DX003 (ip), vehicle: water 102 % of control

CCCCN(CC)C(=S)[S-].CCCCN(CC)C(=S)[S-].[Zn]
inactive: dose: 2.5 mg/kg/injection, schedule: Q01DX009 (ip), vehicle: saline 100 % of control | dose: 5.0 mg/kg/injection, schedule: Q01DX009 (ip), vehicle: saline 95 % of control | dose: 10.0 mg/kg/injection, schedule: Q01DX001 (ip), vehicle: saline 98 % of control | dose: 10.0 mg/kg/injection, schedule: Q01DX009 (ip), vehicle: saline 95 % of control | dose: 10.0 mg/kg/injection, schedule: Q04DX003 (ip), vehicle: saline 105 % of control | dose: 20.0 mg/kg/injection, schedule: Q01DX001 (ip), vehicle: saline 89 % of control | dose: 20.0 mg/kg/injection, schedule: Q04DX003 (ip), vehicle: saline 103 % of control | dose: 40.0 mg/kg/injection, schedule: Q01DX001 (ip), vehicle: saline 91 % of control

CCCC(NC(=O)CN)C(=O)O (stereo not drawn)
inactive: [22] 96 % of control | [23] 101 % of control | dose: 200.0 mg/kg/injection, schedule: Q04DX002 (ip), vehicle: saline 96 % of control

CC(O)C(=O)SCc1ccccc1 (stereo not drawn)
inactive: [19] 95 % of control | [20] 98 % of control | dose: 400.0 mg/kg/injection, schedule: Q04DX002 (ip), vehicle: saline with Tween-80 92 % of control
